Data published in US6653354B2, “NMDA antagonist comprising xenon” (priority 1999, dated 2003).
Entries after “also recorded” stand apart in the source; their conditions may differ.

Assays:
[1] = test system: co-culture injured by oxygen/glucose or oxygen deprivation; test: Oxygen/glucose or oxygen deprivation injury in co-culture (LDH release); type: cell-based, mouse; settings: 75 min replacement of O2 with N2; xenon replacing N2
Experimental: Anoxia was performed on a co-culture by a 75 min replacement of O2 with N2. The xenon and N2 concentrations were changed reciprocally such that their aggregate was 95% of one atmosphere (5% CO2 in either group). After 24 h the culture medium was harvested and assayed for LDH. Data are expressed as the % mean±SD (n=3) of LDH released into the medium over the 24 h period normalised to LDH release when N2 alone is present.
(§1) Dissociated murine cortical cell cultures were prepared using whole cerebral neocortices from fetal mice (14-17 days of gestation). Cortical glial cell cultures were prepared from early postnatal mice. After halting non-neuronal cell division with cytosine arabinoside the surviving cortical neuronal cells were plated onto the glial cell background and co-cultured.

[2] = test system: humans; settings: cited from earlier work
[3] = test system: GABAergic synapses (GABAA receptors) of hippocampal neurons; type: cell-based, rat
Experimental: Hippocampal neurons were grown in culture using methods described previously (Segal M M et al, J. Neurophysiol. 1990, 64:1390-1399; Bekkers J M et al, Proc. Natl. Acad. Sci. U.S.A. 1991, 88:7834-7838; Mennerick S et al, J. Neurophysiol. 1995, 73:320-332). Briefly, hippocampi from Sprague Dawley rats (postnatal day 1-3) were dissected, roughly sliced and agitated in a papain-containing solution (20 units ml^−1) for 30 minutes at 37 EC. After washing with enzyme-free solution, the tissue was gently triturated with a fire-polished Pasteur pipette and the cells were plated out at a density of 8-10×10^4 cells ml^−1 and cultured (95% air/5% CO2) at 37° C. Glass coverslips used for culturing the cells were first coated with agarose (0.15% w/v) and then sprayed with a fine mist of poly-D-lysine (PDL) and collagen (0.1 mg ml^−1 PDL and 0.5 mg ml^−1 rat-tail collagen) from a glass micro-atomiser and sterilized by UV exposure. This produced micro-islands of permissive substrate with diameters of between 100 and 1000 μm. At 3-4 days after plating, when the glial cell layer was about 80% confluent, an anti-mitotic agent (cytosine β-D-arabinofuranoside, 5 μM) was added to arrest glial cell proliferation. Neuronal cultures were then allowed to mature for another 4-9 days. We used micro-islands which contained single isolated neurons whose axonal processes and dendritic trees formed multiple self-synapses (autapses). This procedure provided a large population of phenotypically identical monosynaptic connections.
The neurons were voltage-clamped using the whole-cell recording technique (Axopatch 200 amplifier, Axon Instruments, Foster City, Calif.). Electrodes were fabricated from borosilicate glass and typically had resistances of between 3-5 MΩ. Series resistance was compensated by 75-90%. Neurons were voltage-clamped at −60 mV, and synaptic responses were stimulated by a 2 ms depolarising pulse to +20 mV. […] For the synaptic measurements, data were sampled at 50 kHz, filtered at 20 kHz (−3 dB, 8-pole Bessel) and stored on a computer. The extracellular recording solution was (mM) 137 NaCl, 5 KCl, 3 CaCl2, 5 HEPES, 10 glucose, 0.001 glycine, 0.0001 strychnine-HCl, titrated to pH 7.3 with NaOH; and the intracellular (pipette) solution was (mM) 140 KCl, 4 NaCl, 0.5 EGTA, 2 MgATP, 10 HEPES, titrated to pH 7.25 with KOH.
Xenon solutions were prepared by first bubbling pure gases (oxygen, nitrogen or xenon) through fine sintered-glass bubblers in 250- or 500-ml Drechsel bottles filled with extracellular recording saline. […] (To minimise oxidization, the neurotoxins and neurotransmitters were excluded from the fully oxygenated saline.) During bubbling, the solutions were continually stirred at room temperature. These solutions were then mixed to achieve the desired final concentrations of the gases. Our control solutions usually contained 80% of the nitrogen solution and 20% of the oxygen solution, while our test solutions usually contained 80% of the xenon solution and 20% of the oxygen solution. Using a Bunsen water/gas partition coefficient of 0.0965 (Smith R A et al, Biochim. Biophys. Acta 1981, 645:327-338) we calculate that our standard test solution contained 3.4 mM xenon. Xenon (research grade, 99.993% pure) was supplied by BOC gases, Guildford, Surrey, UK. In all cases xenon was pre-applied to the neurons for at least 30 seconds before the initiation of synaptic currents.
In order to obtain an estimate for the total charge transfer, the EPSCs or IPSCs were numerically integrated.

[4] = test system: rats; settings: cited from earlier work
[5] = test system: neurons of arcuate nucleus of hypothalamus; test: NMA-induced neuron injury in the arcuate nucleus (neuroprotection in vivo); design: species or system Sprague Dawley female adult rats; settings: 75% Xe + NMA 100 mg/kg s.c.
Experimental: It can be seen that NMA caused neuronal degeneration and vacuoulated swelling in the neuropil giving a spongiform appearance in the arcuate nucleus (E). The degenerated neuron has a pyknotic nucleus, which look like “bulls' eyes” because of oedematous swelling of the cytoplasmic compartment.
Rats were injected with NMA (100 mg/kg) sc and sacrificed 4 hours later after exposure to air (“NMA”; n=7) or xenon 75% (“75% xenon+NMA”; n=8). (For comparison the effect of MK801, the NMDA antagonist, is also shown). The arcuate nucleus was removed and sectioned and stained with cresyl violet. Control animals (“PS”; n=6) had neither NMA nor xenon administered. Data are reflected as either the mean of three sections/animal (upper) or the sum (lower) of degenerated neurons in both arcuate nuclei.

[6] = test system: cortical neuronal-glial co-culture injured with glutamate; test: Glutamate-induced neuronal injury in neuronal-glial co-culture (LDH release); type: cell-based, mouse
Experimental: as §1
15 days after originally harvesting the cortical cells, the co-culture plates were exposed at room temperature to glutamate 10-1,000 μM, in CCS from 10-30 minutes. After carefully washing out with CCS, the cells were incubated for 6-24 hours in a Eagle's minimal essential medium free of glutamate or lactate dehydrogenase (LDH) but supplemented with glucose 25 mM, and NaHCO3 38 mM at 37° C. in humidified CO2 (5%) atmosphere. The degree of injury was determined by measuring the LDH released into the medium. A dose-response curve of glutamate-induced injury is shown in FIG. 11, as described hereinbefore.
75% of one atmosphere of xenon was delivered to the cells during and after exposure to 75 μM glutamate, a concentration which produces a near maximal injury. The degree of injury was determined by measuring the LDH released into the medium (after correcting for “baseline” LDH release). Xenon reduced the injury produced by glutamate by more than 35%; when xenon was continued after glutamate exposure, the injury was further reduced by more than 60%. The results of the protective effect of xenon are illustrated in FIG. 13, as described hereinbefore.

[7] = inhibitory currents + 3.4 mM xenon

Q: What does the source list for [Xe] [xenon]?
A: protection against injury induced by oxygen/glucose or oxygen alone deprivation (LDH release over 24 h) [1]: dose-dependent protective effect; half maximal effective concentration EC50 as a human anaesthetic ([2]; human): 71 % v/v; gaseous concentration which prevents a response to a painful stimulus (MAC) ([2]; humans): 71 % atm; effect on inhibitory (GABAergic) postsynaptic currents ([3]; 3.4 mM xenon): negligible effects; also recorded: affected neither the peak value, nor the time course; also recorded: no significant effect; Ipeak % change (means ± SEM) ([3]; inhibitory currents + 3.4 mM (~1 MAC) xenon): −3.1 ± 2.2%; Decay half-time % change (means ± SEM) [3, 7]: −3.4 ± 2.4%; Ifast % change (means ± SEM) [3, 7]: −4.3 ± 2.8%; Islow % change (means ± SEM) [3, 7]: 18.8 ± 12.4%; Qfast % change (means ± SEM) [3, 7]: 1.5 ± 7.2%; Qslow % change (means ± SEM) [3, 7]: 12.6 ± 8.4%; Total charge transfer % change (means ± SEM) [3, 7]: −2.3 ± 3.9%; τfast % change (means ± SEM) [3, 7]: −1.3 ± 3.5%; τslow % change (means ± SEM) [3, 7]: 0.8 ± 6.0%; gaseous concentration which prevents a response to a painful stimulus (MAC) [4]: 161 % atm; NMA-induced neuronal injury (cresyl fast violet histology) [5]: effective in reducing this injury; protection against excitotoxicity (LDH release) ([6]; 100 μM glutamate for 10 minutes, low, sub-anaesthetic concentrations of xenon, LDH after 6 hours): Highly significant protection; reduction of the injury produced by glutamate (LDH release) ([6]; 75% of one atmosphere xenon during exposure to 75 μM glutamate): more than 35%; reduction of the injury produced by glutamate (LDH release) ([6]; 75% xenon continued after 75 μM glutamate exposure): more than 60%
